Data reported in article PMC11149917, “Translational and Therapeutic Evaluation of RAS-GTP Inhibition by RMC-6236 in RAS-Driven Cancers” (Cancer Discovery, 2024).

System: PRISM panel of 845 cancer cell lines
Experiment: PRISM assay
Format: cell-based, human
Method: The PRISM cell set comprised 845 cell lines representing more than 45 lineages (see Supplementary Table S1 for cell line information), which largely overlapped with the Cancer Cell Line Encyclopedia; https://portals.broadinstitute.org/ccle). Cell lines were grown in RPMI without phenol red and supplemented with 10% or 20% FBS for adherent and suspended lines, respectively. Parental cell lines were stably infected with a unique 24-nucleotide DNA barcode via lentiviral transduction and blasticidin selection. After selection, barcoded cell lines were expanded and subjected to quality control (Mycoplasma contamination test, an SNP test for confirming cell line identity, and barcode ID confirmation). Approved cell lines were then pooled (20–25 cell lines per pool) based on doubling time similarity and frozen in assay-ready vials.
RMC-6236 was added to 384-well plates at 8-point concentration with 3-fold dilutions in triplicate. These assay-ready plates were then seeded with the thawed cell line pools. Adherent cell pools were plated at 1,250 cells per well, whereas suspension and mixed adherent/suspension pools were plated at 2,000 cells per well. Treated cells were incubated for 5 days, and then lysed. Lysate plates were collapsed together prior to barcode amplification and detection.
Each cell line's unique barcode is located in the 3′UTR of the blasticidin-resistance gene and therefore is expressed as mRNA. Total mRNA was captured using magnetic particles that recognize polyA sequences. Captured mRNA was reverse-transcribed into cDNA and then the sequence containing the unique PRISM barcode was amplified using PCR. Finally, Luminex beads that recognize the specific barcode sequences in the cell set were hybridized to the PCR products and detected using a Luminex scanner which reports the signal as a median fluorescent intensity (MFI).
• Each detection well contained 10 control barcodes in increasing abundances as spike-in controls. For each plate, we first create a reference profile by calculating the median of the log2(MFI) values across negative control wells for each of these spiked-in barcodes. • For each well, a monotonic smooth p-spline was fitted to map the spike-in control levels to the reference profile. Next, we transform the log2(MFI) for each cell barcode using the fitted spline to allow well-to-well comparisons by correcting for amplification and detection artifacts. • Next, the separability between negative and positive control treatments was assessed. In particular, we calculated the error rate of the optimum simple threshold classifier between the control samples for each cell line and plate combination. The error rate is a measure of the overlap of the two control sets and was defined as error = (FP + FN)/n, where FP is false positives, FN is false negatives, and n is the total number of controls. A threshold was set between the distributions of positive and negative control log2(MFI) values (with everything below the threshold said to be positive and above said to be negative) such that this value is minimized. Additionally, we also calculated the dynamic range of each cell line. […] Additionally, any cell line that had less than 2 passing replicates was also omitted for the sake of reproducibility. Finally, we computed viability by normalizing with respect to the median negative control for each plate.
For every gene with nonsilent mutations in at least four cell lines, we compared the AUC values between cells with and without those mutations using a t test. This analysis was carried out for (i) the full data set; (ii) excluding cell lines with nonsilent KRAS mutations; and (iii) excluding cell lines that have either KRAS or NRAS nonsilent mutations.

CCn1c(-c2cc(N3CCN(C)CC3)cnc2[C@H](C)OC)c2c3cc(ccc31)-c1csc(n1)C[C@H](NC(=O)[C@H]1C[C@@H]1C)C(=O)N1CCC[C@H](N1)C(=O)OCC(C)(C)C2 [RMC-6236]
RMC-6236: RevMed PRISM: AUC (22RV1_PROSTATE): 0.9065
RMC-6236: RevMed PRISM: AUC (A427_LUNG, KRAS p.G12D): 0.4282
RMC-6236: RevMed PRISM: AUC (A704_KIDNEY): 1
RMC-6236: RevMed PRISM: AUC (A1207_CENTRAL_NERVOUS_SYSTEM): 1
RMC-6236: RevMed PRISM: AUC (BICR16_UPPER_AERODIGESTIVE_TRACT): 0.548
RMC-6236: RevMed PRISM: AUC (CAL54_KIDNEY): 1
RMC-6236: RevMed PRISM: AUC (CAL72_BONE): 0.8456
RMC-6236: RevMed PRISM: AUC (CAL120_BREAST): 0.7982
RMC-6236: RevMed PRISM: AUC (CHLA15_AUTONOMIC_GANGLIA): 0.6747
RMC-6236: RevMed PRISM: AUC (COLO678_LARGE_INTESTINE, KRAS p.G12D): 0.7109
RMC-6236: RevMed PRISM: AUC (COLO679_SKIN): 0.8171
RMC-6236: RevMed PRISM: AUC (CORL23_LUNG, KRAS p.G12V): 0.4445
RMC-6236: RevMed PRISM: AUC (DETROIT562_UPPER_AERODIGESTIVE_TRACT): 0.5051
RMC-6236: RevMed PRISM: AUC (DMS53_LUNG): 0.9861
RMC-6236: RevMed PRISM: AUC (EBC1_LUNG): 0.478
RMC-6236: RevMed PRISM: AUC (ECGI10_OESOPHAGUS): 0.6603
RMC-6236: RevMed PRISM: AUC (EW8_BONE): 0.6608
RMC-6236: RevMed PRISM: AUC (EWS502_BONE): 0.706
RMC-6236: RevMed PRISM: AUC (FADU_UPPER_AERODIGESTIVE_TRACT): 0.6934
RMC-6236: RevMed PRISM: AUC (G292CLONEA141B1_BONE): 0.9519
RMC-6236: RevMed PRISM: AUC (GB2_BILIARY_TRACT): 0.6327
RMC-6236: RevMed PRISM: AUC (H357_UPPER_AERODIGESTIVE_TRACT, HRAS p.G13S): 0.44
RMC-6236: RevMed PRISM: AUC (HARA_LUNG): 0.583
RMC-6236: RevMed PRISM: AUC (HCC827_LUNG): 0.8007
RMC-6236: RevMed PRISM: AUC (HCC1195_LUNG, NRAS p.Q61L): 0.7308
RMC-6236: RevMed PRISM: AUC (HCC1937_BREAST): 0.9056
RMC-6236: RevMed PRISM: AUC (HCSC1_CERVIX, NRAS p.G13R): 1
RMC-6236: RevMed PRISM: AUC (HDQP1_BREAST): 0.5485
RMC-6236: RevMed PRISM: AUC (HEYA8_OVARY, KRAS p.G12D): 0.6142
RMC-6236: RevMed PRISM: AUC (HT29_LARGE_INTESTINE): 0.9177
RMC-6236: RevMed PRISM: AUC (HT115_LARGE_INTESTINE): 0.7857
RMC-6236: RevMed PRISM: AUC (IGR39_SKIN): 0.916
RMC-6236: RevMed PRISM: AUC (JHH6_LIVER): 0.7876
RMC-6236: RevMed PRISM: AUC (JHOC5_OVARY): 0.7067
RMC-6236: RevMed PRISM: AUC (KE39_STOMACH): 0.7632
RMC-6236: RevMed PRISM: AUC (KE97_STOMACH): 0.8452
RMC-6236: RevMed PRISM: AUC (KKU100_BILIARY_TRACT, KRAS p.G12D): 0.4482
RMC-6236: RevMed PRISM: AUC (KKU213_BILIARY_TRACT, KRAS p.G13C): 0.6654
RMC-6236: RevMed PRISM: AUC (KLE_ENDOMETRIUM): 0.9884
RMC-6236: RevMed PRISM: AUC (KMS34_HAEMATOPOIETIC_AND_LYMPHOID_TISSUE): 0.7785
RMC-6236: RevMed PRISM: AUC (KOSC2CL343_UPPER_AERODIGESTIVE_TRACT): 0.6166
RMC-6236: RevMed PRISM: AUC (KP2_PANCREAS, KRAS p.G12R): 0.4026
Median AUC (PRISM) (KRAS^MUT cell lines): 0.57
RMC-6236: RevMed PRISM: AUC (KU1919_URINARY_TRACT, NRAS p.Q61R): 0.3992
RMC-6236: RevMed PRISM: AUC (KYSE30_OESOPHAGUS, HRAS p.Q61L): 0.6346
RMC-6236: RevMed PRISM: AUC (KYSE150_OESOPHAGUS): 0.7237
RMC-6236: RevMed PRISM: AUC (KYSE410_OESOPHAGUS, KRAS p.G12C): 0.5271
RMC-6236: RevMed PRISM: AUC (KYSE450_OESOPHAGUS): 0.5198
RMC-6236: RevMed PRISM: AUC (LI7_LIVER): 0.743
RMC-6236: RevMed PRISM: AUC (LOVO_LARGE_INTESTINE, KRAS p.G13D): 0.6638
RMC-6236: RevMed PRISM: AUC (LOXIMVI_SKIN): 0.876
RMC-6236: RevMed PRISM: AUC (LS411N_LARGE_INTESTINE): 1
